Results as given in patent publication US7183276B2, “Azole compounds” (Takeda Pharmaceutical Company Limited, priority 2002, dated 2007).

melting point | SMILES
169 to 170 °C | CN(C)c1ccc(NC(=O)Cc2ccc(NC(=O)CCc3oc(-n4cnc5ccccc54)nc3-c3ccc(Cl)cc3)cc2)cc1 [Example 140, 2-[4-(N-{3-[2-(1H-benzimidazol-1-yl)-4-(4-chlorophenyl)-5-oxazolyl]propanoyl}amino)phenyl]-N-[4-(dimethylamino)phenyl]acetamide]
200 to 201 °C | Cc1cc(Cl)ccc1CNC(=O)CCc1oc(-n2cnc3ccccc32)nc1-c1ccc(Cl)cc1 [Example 178, 3-[2-(1H-benzimidazol-1-yl)-4-(4-chlorophenyl)-5-oxazolyl]-N-(4-chloro-2-methylbenzyl)propionamide]
202 to 203 °C | O=C(CCc1oc(-n2cnc3ccccc32)nc1-c1ccc(Cl)cc1)NCc1ccccc1F [Example 137, 3-[2-(1H-benzimidazol-1-yl)-4-(4-chlorophenyl)-5-oxazolyl]-N-(2-fluorobenzyl)propionamide]
170 to 171 °C | CC(C)(C)c1ccc(CNC(=O)CCc2oc(-n3cnc4ccccc43)nc2-c2ccc(Cl)cc2)cc1 [Example 144, 3-[2-(1H-benzimidazol-1-yl)-4-(4-chlorophenyl)-5-oxazolyl]-N-[4-tert-butylbenzyl]propionamide]
216 to 217 °C | O=C(CCc1oc(-n2cnc3ccccc32)nc1-c1ccc(Cl)cc1)Nc1ccc(C2CCCCC2)cc1 [Example 116, 3-[2-(1H-benzimidazol-1-yl)-4-(4-chlorophenyl)-5-oxazolyl]-N-(4-cyclohexylphenyl)propionamide]
190 to 191 °C | Cc1ccc(CNC(=O)CCCc2oc(-n3cnc4ccccc43)nc2-c2ccc(Cl)cc2)cc1 [Example 196, 4-[2-(1H-benzimidazol-1-yl)-4-(4-chlorophenyl)-5-oxazolyl]-N-(4-methylbenzyl)butanamide]
232 to 233 °C | CC(C)c1ccc(NC(=O)CCc2oc(-n3cnc4ccccc43)nc2-c2ccc(Cl)cc2)cc1 [Example 126, 3-[2-(1H-benzimidazol-1-yl)-4-(4-chlorophenyl)-5-oxazolyl]-N-(4-isopropylphenyl)propionamide]
143 to 144 °C | CCOP(=O)(Cc1ccc(NC(=O)CCc2oc(-n3cnc4ccccc43)nc2-c2ccc(OC)cc2)cc1)OCC
181 to 183 °C | O=C(CCc1oc(-n2cnc3ccccc32)nc1-c1ccc(Cl)cc1)NCc1cccc(Br)c1 [Example 171, 3-[2-(1H-benzimidazol-1-yl)-4-(4-chlorophenyl)-5-oxazolyl]-N-(3-bromobenzyl)propionamide]
162 to 163 °C | CCOP(=O)(OCC)c1ccc(NC(=O)CCCc2oc(-n3cnc4ccccc43)nc2-c2ccc(Cl)cc2)cc1
181 to 182 °C | CCOC(=O)Cc1ccc(NC(=O)CCc2oc(-n3cnc4ccccc43)nc2-c2ccc(Cl)cc2)cc1 [Example 76, 3-[2-(1H-benzimidazol-1-yl)-4-(4-chlorophenyl)-5-oxazolyl]-N-[4-(ethoxycarbonylmethyl)phenyl]propionamide]
247 to 248 °C | O=C(O)Cc1ccc(NC(=O)CCc2oc(-n3cnc4ccccc43)nc2-c2ccc(Cl)cc2)cc1 [Example 90, 4-({3-[2-(1H-benzimidazol-1-yl)-4-(4-chlorophenyl)-5-oxazolyl]propanoyl)amino}phenylacetic acid]
186 to 187 °C | N#Cc1ccccc1NC(=O)CCc1oc(-n2cnc3ccccc32)nc1-c1ccc(Cl)cc1 [Example 113, 3-[2-(1H-benzimidazol-1-yl)-4-(4-chlorophenyl)-5-oxazolyl]-N-(2-cyanophenyl)propionamide]
250 to 251 °C | O=C(CCc1oc(-n2cnc3ccccc32)nc1-c1ccc(Cl)cc1)NCC(=O)Nc1ccccc1 [Example 149, 2-({3-[2-(1H-benzimidazol-1-yl)-4-(4-chlorophenyl)-5-oxazolyl]propanoyl}amino)-N-phenylacetamide]

The remaining lines, values behind:

SMILES | melting point
NC(=O)CCc1oc(-c2ccc(F)cc2)nc1-c1ccc(Cl)cc1 [Example 23, 3-[4-(4-chlorophenyl)-2-(4-fluorophenyl)-5-oxazolyl]propionamide] | 212 to 213 °C
CCOP(=O)(Cc1ccc(NC(=O)CCc2sc(N)nc2-c2ccc(Cl)cc2)cc1)OCC | 177 to 178 °C
NC(=O)CCc1oc(C2CCCCC2)nc1-c1ccc(Cl)cc1 [Example 17, 3-[4-(4-chlorophenyl)-2-cyclohexyl-5-oxazolyl]propionamide] | 142 to 143 °C
Cc1ncn(-c2nc(-c3ccc(Cl)cc3)c(CCC(N)=O)o2)c1C [Example 19, 3-[4-(4-chlorophenyl)-2-(4,5-dimethyl-1-imidazolyl)-5-oxazolyl]propionamide] | 232 to 233 °C
CCOP(=O)(Cc1ccc(NC(=O)CCCc2oc(N3CCN(c4ccccn4)CC3)nc2-c2ccc(Cl)cc2)cc1)OCC | 114 to 116 °C
O=C(CCc1oc(-n2cnc3ccccc32)nc1-c1ccc(Cl)cc1)NCc1cc(Cl)ccc1Cl [Example 174, 3-[2-(1H-benzimidazol-1-yl)-4-(4-chlorophenyl)-5-oxazolyl]-N-(2,5-dichlorobenzyl)propionamide] | 205 to 207 °C
O=C(CCCc1oc(-c2ccccc2)nc1-c1ccc(Cl)cc1)N1CCN(c2ccccc2)CC1 [Example 51, 1-{4-[4-(4-chlorophenyl)-2-phenyl-5-oxazolyl]butanoyl}-4-phenylpiperazine] | 104 to 105 °C
O=C(CCc1oc(-n2cnc3ccccc32)nc1-c1ccc(Cl)cc1)NCCc1ccccn1 [Example 92, 3-[2-(1H-benzimidazol-1-yl)-4-(4-chlorophenyl)-5-oxazolyl]-N-[2-(2-pyridinyl)ethyl]propionamide] | 150 to 151 °C
O=C(CCc1oc(-n2cnc3ccccc32)nc1-c1ccc(Cl)cc1)NCc1cc(F)cc(C(F)(F)F)c1 [Example 163, 3-[2-(1H-benzimidazol-1-yl)-4-(4-chlorophenyl)-5-oxazolyl]-N-[3-fluoro-5-(trifluoromethyl)benzyl]propionamide] | 198 to 200 °C
COP(=O)(Cc1ccc(NC(=O)CCCCCc2sc(-c3ccccc3)nc2-c2ccc(Cl)cc2)cc1)OC | 164 to 165 °C
O=C(CCc1oc(-n2cnc3ccccc32)nc1-c1ccc(F)cc1)N1CCC(O)CC1 [Example 258, 1-{3-[2-(1H-benzoimidazol-1-yl)-4-(4-fluorophenyl)-5-oxazolyl]propanoyl}-4-piperidinol] | 158 to 159 °C
O=C(CCc1oc(-c2ccccc2)nc1-c1ccc(Cl)cc1)Nc1cccnc1 [Example 41, 3-[4-(4-chlorophenyl)-2-phenyl-5-oxazolyl]-N-(3-pyridinyl)propionamide] | 204 to 205 °C
O=C(CCc1oc(-n2cnc3ccccc32)nc1-c1ccc(Cl)cc1)NCc1ccccc1C(F)(F)F [Example 157, 3-[2-(1H-benzimidazol-1-yl)-4-(4-chlorophenyl)-5-oxazolyl]-N-[2-(trifluoromethyl)benzyl]propionamide] | 208 to 209 °C
CCOP(=O)(Cc1ccc(NC(=O)CCc2oc(N3CCOCC3)nc2-c2ccc(Cl)cc2)cc1)OCC | 186 to 187 °C
CCOP(=O)(CCCNC(=O)CCc1oc(-n2cnc3ccccc32)nc1-c1ccc(Cl)cc1)OCC | 130 to 131 °C
O=C(CCc1oc(-n2cnc3ccccc32)nc1-c1ccc(Cl)cc1)NCC(=O)NCc1ccccc1 [Example 148, 2-({3-[2-(1H-benzimidazol-1-yl)-4-(4-chlorophenyl)-5-oxazolyl]propanoyl}amino)-N-benzylacetamide] | 186 to 187 °C
NC(=O)CCc1oc(N2CCOCC2)nc1-c1ccc(Cl)cc1 [Example 9, 3-[4-(4-chlorophenyl)-2-(4-morpholinyl)-5-oxazolyl]propionamide] | 180 to 181 °C
N#CCc1ccc(NC(=O)CCc2oc(-c3ccccc3)nc2-c2ccc(Cl)cc2)cc1 [Example 105, 3-[4-(4-chlorophenyl)-2-phenyl-5-oxazolyl]-N-[4-(cyanomethyl)phenyl]propionamide] | 212 to 214 °C
CCOP(=O)(Cc1ccc(NC(=O)CCc2sc(-c3ccccc3)nc2-c2ccc(Cl)cc2)cc1)OCC | 164 to 165 °C
NC(=O)CCc1oc(Sc2ncccn2)nc1-c1ccc(Cl)cc1 [Example 33, 3-[4-(4-chlorophenyl)-2-(2-pyrimidinylsulfanyl)-5-oxazolyl]propionamide] | 194 to 195 °C
O=C(CCc1oc(-c2ccccc2)nc1-c1ccc(Cl)cc1)Nc1ccc(C(=O)O)cc1 [Example 63, 4-({3-[4-(4-chlorophenyl)-2-phenyl-5-oxazolyl]propanoyl}amino)benzoic acid] | 243 to 244 °C
COc1ccc(OC)c(CNC(=O)CCc2oc(-n3cnc4ccccc43)nc2-c2ccc(Cl)cc2)c1 [Example 179, 3-[2-(1H-benzimidazol-1-yl)-4-(4-chlorophenyl)-5-oxazolyl]-N-(2,5-dimethoxybenzyl)propionamide] | 193 to 194 °C
COc1cc(CNC(=O)CCc2oc(-n3cnc4ccccc43)nc2-c2ccc(Cl)cc2)cc(OC)c1OC [Example 169, 3-[2-(1H-benzimidazol-1-yl)-4-(4-chlorophenyl)-5-oxazolyl]-N-(3,4,5-trimethoxybenzyl)propionamide] | 169 to 170 °C
O=C(CCc1oc(-n2cnc3ccccc32)nc1-c1ccc(Cl)cc1)NCc1ccncc1 [Example 155, 3-[2-(1H-benzimidazol-1-yl)-4-(4-chlorophenyl)-5-oxazolyl]-N-(4-pyridinylmethyl)propionamide] | 214 to 216 °C
CCOP(=O)(Cc1ccc(NC(=O)CCc2ocnc2-c2ccc(Cl)cc2)cc1)OCC | 130 to 131 °C
CCOP(=O)(Cc1ccc(NC(=O)CCc2sc(-n3cnc4ccccc43)nc2C(C)C)cc1)OCC | 171 to 172 °C
CCOP(=O)(Cc1ccc(NC(=O)CCc2sc(NC(=O)NC)nc2-c2ccc(Cl)cc2)cc1)OCC | 206 to 207 °C
CNS(=O)(=O)Cc1ccc(NC(=O)CCc2oc(-n3ccnc3)nc2-c2ccc(Cl)cc2)cc1 [Example 44, 3-[2-(1H-imidazol-1-yl)-4-(4-chlorophenyl)-5-oxazolyl]-N-(4-{[(methylamino)sulfonyl]methyl}phenyl)propionamide] | 224 to 225 °C
CCOP(=O)(Cc1ccc(NC(=O)CCc2sc(-n3cnc4ccccc43)nc2-c2ccccc2)cc1)OCC | 142 to 143 °C
